Experimental data: patent publication US20130005741A1, “SUBSTITUTED PYRIMIDINE AS A PROSTAGLANDIN D2 RECEPTOR ANTAGONIST” (AVENTIS PHARMACEUTICALS INC., priority 2010, published 2013)
Structures can show the parent of a compound that is named as a salt.

Molecular target: T1, human prostaglandin D2 receptor (DP) (Homo sapiens, UniProt Q13258)
T1 construct: endogenous in cells; host or cells: human platelets in platelet-rich plasma from donor blood
T1 sequence (Q13258 1-359): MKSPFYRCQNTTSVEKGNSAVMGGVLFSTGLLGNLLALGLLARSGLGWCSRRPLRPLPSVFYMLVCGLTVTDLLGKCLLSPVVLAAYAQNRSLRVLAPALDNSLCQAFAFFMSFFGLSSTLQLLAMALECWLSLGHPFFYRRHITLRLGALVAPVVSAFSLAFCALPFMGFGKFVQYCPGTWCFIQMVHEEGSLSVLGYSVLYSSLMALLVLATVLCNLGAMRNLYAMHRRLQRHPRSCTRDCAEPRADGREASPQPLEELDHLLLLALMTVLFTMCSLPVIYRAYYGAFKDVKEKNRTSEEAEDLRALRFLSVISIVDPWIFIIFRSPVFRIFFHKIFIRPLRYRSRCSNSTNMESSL
Test: BW245C-induced cAMP accumulation in human platelet rich plasma (hPRP) by HTRF cAMP assay
Assay type: cell-based
Settings: inhibition of BW245C (25 nM)-induced cAMP accumulation in human platelet-rich plasma
Excerpt: Assessment of Antagonist Activities of Compounds on BW245C-Induced cAMP
Accumulation in Human Platelet Rich Plasma (hPRP) by HTRF cAMP Assay
The purpose of the assay is to assess compound antagonist activity at the human prostaglandin D2 receptor (DP), also known as (DP1), in the presence of plasma proteins. DP is a Gs-protein coupled receptor, the activation of which induces cAMP accumulation. BW245C is a DP selective agonist. Therefore, by measuring inhibition of BW245C-induced 3′-5′-cyclic adenosine monophosphate (cAMP) accumulation in human platelet-rich plasma (hPRP), the assay enables us to identify or confirm antagonist compounds at the human DP and/or IP receptors.
The principle of the assay is based on HTRF technology (Homogeneous Time-Resolved Fluorescence). The method is a competitive immunoassay between native cAMP produced by cells and the tracer cAMP labeled with the dye d2. The tracer is visualized by a monoclonal antibody anti-cAMP labeled with cryptate. The specific signal (i.e. energy transfer) is inversely related to the concentration of cAMP in the standards or samples. The assay was carried out using the cAMP HiRange HTRF kit from Cisbio (catalog number 62AM6PEB, 888-963-4567).
Preparation of Human Platelet Rich Plasma (hPRP): Human blood was obtained from sanofi-aventis on-site blood donor panel. […]

Row | IC50 [nM] | Compound
1 | 155 | COc1nc(NCCc2ccc(OC(F)(F)F)cc2)cc(N2CCC[C@H](CC(=O)O)C2)n1 (single isomer, unassigned) [(R) enantiomer]
2 | 73 | COc1nc(NCCc2ccc(OC(F)(F)F)cc2)cc(N2CCC[C@@H](CC(=O)O)C2)n1 [drawing 23, (S)1-{2-Methoxy-6-[2-(4-trifluoromethoxy-phenyl)-ethylamino]-pyrimidin-4-yl}-piperidin-3-yl)-acetic acid, phosphoric acid salt]
